Test results: ChEMBL document CHEMBL1201862, “PubChem BioAssay data set” (2004)
The source made the active and inactive calls.

Experiments:
[1] = molecular target: Scavenger receptor class B member 1 (Mus musculus, UniProt Q61009); assay: mouse SR-BI DiI-HDL uptake blockers – ldlA[mSR-BI] cells, fluorescence, cherry pick, dose response (AID 493194); assay type: functional, cell-based;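 note: cellular uptake of fluorescent DiI-labeled HDL measured as cell fluorescence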
Hexokinase HKDC1 [2] = molecular target: T1, Hexokinase HKDC1 (Homo sapiens, UniProt Q2TB90); assay: SAR analysis of small molecule inhibitors of hexokinase domain containing I (HKDC1). [Related pubchem assays (depositor defined):AID493160, AID493190]; assay type: functional
T1 sequence (Q2TB90 whole entry): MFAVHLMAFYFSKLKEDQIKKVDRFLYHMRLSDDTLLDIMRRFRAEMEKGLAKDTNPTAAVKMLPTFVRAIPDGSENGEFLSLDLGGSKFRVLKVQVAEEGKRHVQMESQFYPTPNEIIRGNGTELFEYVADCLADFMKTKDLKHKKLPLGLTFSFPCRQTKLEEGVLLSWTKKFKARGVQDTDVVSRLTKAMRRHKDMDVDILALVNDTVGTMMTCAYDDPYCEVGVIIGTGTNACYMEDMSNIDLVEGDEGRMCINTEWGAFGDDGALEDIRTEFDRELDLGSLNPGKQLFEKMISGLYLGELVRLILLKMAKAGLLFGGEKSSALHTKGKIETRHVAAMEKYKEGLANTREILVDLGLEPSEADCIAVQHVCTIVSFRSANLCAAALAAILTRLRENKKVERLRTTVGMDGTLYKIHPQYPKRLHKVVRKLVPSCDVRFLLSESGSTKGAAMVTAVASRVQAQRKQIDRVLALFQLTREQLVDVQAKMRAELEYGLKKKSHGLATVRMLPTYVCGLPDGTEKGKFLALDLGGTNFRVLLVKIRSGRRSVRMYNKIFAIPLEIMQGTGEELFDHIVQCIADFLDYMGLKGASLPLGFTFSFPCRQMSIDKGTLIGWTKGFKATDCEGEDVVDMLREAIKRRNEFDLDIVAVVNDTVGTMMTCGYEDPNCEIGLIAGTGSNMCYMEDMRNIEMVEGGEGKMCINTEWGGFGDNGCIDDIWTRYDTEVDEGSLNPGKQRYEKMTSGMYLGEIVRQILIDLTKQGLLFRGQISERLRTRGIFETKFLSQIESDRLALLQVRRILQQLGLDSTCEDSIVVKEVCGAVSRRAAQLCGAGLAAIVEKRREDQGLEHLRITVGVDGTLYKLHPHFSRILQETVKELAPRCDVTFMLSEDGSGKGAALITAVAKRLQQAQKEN

Hexokinase-1 = molecular target: T2, Hexokinase-1 (Homo sapiens, UniProt P19367); assay: SAR analysis of small molecule inhibitors of hexokinase domain containing I (HKDC1) in the hexokinase 1 selectivity assay. [Related pubchem assays (depositor defined):AID493160, AID493190]; assay type: functional
T2 sequence (P19367 whole entry): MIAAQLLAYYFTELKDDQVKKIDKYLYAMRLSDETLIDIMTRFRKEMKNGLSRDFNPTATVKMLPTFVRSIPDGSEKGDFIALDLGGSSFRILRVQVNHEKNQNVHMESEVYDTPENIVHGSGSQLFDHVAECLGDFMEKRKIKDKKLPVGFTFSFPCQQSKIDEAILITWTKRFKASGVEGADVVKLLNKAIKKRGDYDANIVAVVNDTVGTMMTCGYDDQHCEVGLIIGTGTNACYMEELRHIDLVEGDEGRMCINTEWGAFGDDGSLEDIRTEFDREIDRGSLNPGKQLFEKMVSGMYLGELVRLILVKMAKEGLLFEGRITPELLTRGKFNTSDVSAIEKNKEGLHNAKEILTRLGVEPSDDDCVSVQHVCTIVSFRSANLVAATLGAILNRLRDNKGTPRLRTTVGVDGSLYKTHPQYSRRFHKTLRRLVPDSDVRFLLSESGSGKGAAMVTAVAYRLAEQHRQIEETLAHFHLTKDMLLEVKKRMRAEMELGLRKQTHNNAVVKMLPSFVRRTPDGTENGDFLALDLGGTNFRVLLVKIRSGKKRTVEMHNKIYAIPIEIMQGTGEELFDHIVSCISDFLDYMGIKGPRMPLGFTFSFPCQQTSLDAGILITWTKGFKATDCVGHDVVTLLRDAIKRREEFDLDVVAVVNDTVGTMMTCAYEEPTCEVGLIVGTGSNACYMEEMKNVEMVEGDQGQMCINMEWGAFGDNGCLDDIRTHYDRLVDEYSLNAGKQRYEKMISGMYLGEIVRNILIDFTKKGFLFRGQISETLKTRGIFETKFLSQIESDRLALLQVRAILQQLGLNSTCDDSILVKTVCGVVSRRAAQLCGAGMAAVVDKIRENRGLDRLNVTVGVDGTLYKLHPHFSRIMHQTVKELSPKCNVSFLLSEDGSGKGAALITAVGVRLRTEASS

Hexokinase HKDC1 [3] = molecular target: T1, Hexokinase HKDC1; assay: inhibition of HKDC1 glucose phosphorylation – biochemical, W721R variant, dose response (AID 504729); assay type: functional
Troponin, cardiac muscle = Troponin, cardiac muscle (Homo sapiens, UniProt P19429+P45379+P63316); assay: Fluorescence-based biochemical high throughput dose response assay for activators of the calcium sensitivity of cardiac Regulated Thin Filaments (RTF). [Related pubchem assays (depositor defined):AID493008, AID493018, AID504382, AID504383]; assay type: protein-complex assay
ORF 73 = ORF 73 (Human herpesvirus 8, UniProt O40947); assay: KSHV LANA DNA-binding disruption – biochemical, fluorescence polarization, cherry-picked samples, dose response (AID 504725); parameters: species or system Human gammaherpesvirus 8;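 note: fluorescence polarization of a labeled DNA duplex reporting LANA DNA binding; potency is for inhibitors that block LANA binding to the DNA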
Sequence of ORF 73 (O40947 whole entry, the tested form may be a part): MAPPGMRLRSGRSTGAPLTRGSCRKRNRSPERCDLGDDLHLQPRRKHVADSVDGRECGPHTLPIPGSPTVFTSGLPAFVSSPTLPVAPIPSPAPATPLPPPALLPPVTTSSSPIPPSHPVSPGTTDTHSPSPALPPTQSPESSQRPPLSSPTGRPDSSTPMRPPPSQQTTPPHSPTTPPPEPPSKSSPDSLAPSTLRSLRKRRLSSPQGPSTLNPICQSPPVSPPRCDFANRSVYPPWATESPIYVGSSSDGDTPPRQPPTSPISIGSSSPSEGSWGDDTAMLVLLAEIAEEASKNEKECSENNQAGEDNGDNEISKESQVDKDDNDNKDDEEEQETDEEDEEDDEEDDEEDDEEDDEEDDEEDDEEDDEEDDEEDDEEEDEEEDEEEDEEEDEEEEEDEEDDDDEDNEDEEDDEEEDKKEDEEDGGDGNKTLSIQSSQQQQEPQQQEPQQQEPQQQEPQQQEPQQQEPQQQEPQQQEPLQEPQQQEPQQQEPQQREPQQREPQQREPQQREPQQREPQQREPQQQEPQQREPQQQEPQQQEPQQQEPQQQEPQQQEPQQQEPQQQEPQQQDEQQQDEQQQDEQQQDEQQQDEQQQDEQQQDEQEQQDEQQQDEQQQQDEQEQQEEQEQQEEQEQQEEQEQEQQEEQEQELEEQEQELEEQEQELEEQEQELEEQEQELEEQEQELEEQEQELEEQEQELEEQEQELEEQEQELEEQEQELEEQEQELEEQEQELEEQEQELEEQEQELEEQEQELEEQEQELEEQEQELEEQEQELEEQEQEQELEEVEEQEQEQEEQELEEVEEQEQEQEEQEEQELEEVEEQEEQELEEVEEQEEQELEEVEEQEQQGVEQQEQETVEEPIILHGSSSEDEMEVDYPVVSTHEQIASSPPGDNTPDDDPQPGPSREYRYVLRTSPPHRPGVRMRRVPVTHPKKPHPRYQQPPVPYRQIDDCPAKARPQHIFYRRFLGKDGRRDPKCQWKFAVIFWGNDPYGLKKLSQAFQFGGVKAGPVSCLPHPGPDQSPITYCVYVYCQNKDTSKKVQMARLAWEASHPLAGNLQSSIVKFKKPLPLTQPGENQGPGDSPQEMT

Fibrinogen beta chain [4] = molecular target: T3, Fibrinogen beta chain (Homo sapiens, UniProt P02675); assay: Fluorescence polarization-based biochemical high throughput dose response assay to identify inhibitors that disrupt the binding of a cyclic peptide (Tn6) to the fibrin proteolytic product D-Dimer and fragment E complex [DD(E )].
T3 sequence (P02675 whole entry, the tested form may be a part): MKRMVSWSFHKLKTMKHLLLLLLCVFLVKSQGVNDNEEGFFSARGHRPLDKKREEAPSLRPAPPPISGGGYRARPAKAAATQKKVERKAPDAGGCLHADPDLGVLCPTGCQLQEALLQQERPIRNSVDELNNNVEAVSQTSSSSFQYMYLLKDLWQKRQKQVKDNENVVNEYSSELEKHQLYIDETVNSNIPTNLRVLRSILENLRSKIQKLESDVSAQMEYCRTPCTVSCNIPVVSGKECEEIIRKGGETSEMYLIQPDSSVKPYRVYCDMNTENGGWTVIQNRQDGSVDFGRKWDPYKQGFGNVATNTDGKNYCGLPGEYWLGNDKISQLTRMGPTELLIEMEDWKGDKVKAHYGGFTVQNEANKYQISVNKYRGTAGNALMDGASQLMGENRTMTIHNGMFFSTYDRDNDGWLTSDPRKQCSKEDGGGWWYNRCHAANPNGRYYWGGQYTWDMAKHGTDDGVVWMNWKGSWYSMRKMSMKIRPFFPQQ

[5] = molecular target: T4, Long-chain-fatty-acid--AMP ligase FadD28 (Mycobacterium tuberculosis, UniProt P9WQ59); assay: Fluorescence polarization aasay to screen for inhibitors that compete for the binding of FadD28 to a bisubstrate Measured in Biochemical System Using Plate Reader - 2147-01_Inhibitor_Dose_CherryPick_Activity.; assay type: functional, Mycobacterium tuberculosis H37Rv
T4 sequence (P9WQ59 whole entry): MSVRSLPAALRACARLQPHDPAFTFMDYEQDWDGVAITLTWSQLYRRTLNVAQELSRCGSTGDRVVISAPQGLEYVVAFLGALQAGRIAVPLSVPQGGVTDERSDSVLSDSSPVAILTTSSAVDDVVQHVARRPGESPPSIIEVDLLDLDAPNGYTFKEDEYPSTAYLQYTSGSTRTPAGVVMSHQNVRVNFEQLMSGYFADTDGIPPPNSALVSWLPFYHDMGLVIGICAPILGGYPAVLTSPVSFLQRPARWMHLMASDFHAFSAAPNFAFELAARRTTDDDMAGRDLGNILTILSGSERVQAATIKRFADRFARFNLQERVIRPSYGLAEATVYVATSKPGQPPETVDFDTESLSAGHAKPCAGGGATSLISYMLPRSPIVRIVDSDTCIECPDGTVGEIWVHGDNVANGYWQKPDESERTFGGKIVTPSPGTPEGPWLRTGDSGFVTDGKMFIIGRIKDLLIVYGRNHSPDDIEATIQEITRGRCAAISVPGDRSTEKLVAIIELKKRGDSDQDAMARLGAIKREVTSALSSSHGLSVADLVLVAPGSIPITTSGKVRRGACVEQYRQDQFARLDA

[6] = viability of HCT116 lacking mutant beta-catenin – cell-based, human colon tumor, dose response (AID 1045); assay type: functional;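 note: HCT116 colon tumor cells with beta catenin knocked out; cells exposed to compound for 60 hours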
[7] = molecular target: Dual specificity tyrosine-phosphorylation-regulated kinase 1A (Rattus norvegicus, UniProt Q63470); assay type: biochemical, Homo sapiens
[8] = viability of PTEN-deleted HCT116 cells – cell-based, HCT116 PTEN knockout, dose response (AID 1047); assay type: functional;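 note: HCT116 colon tumor cells with PTEN knocked out; cells exposed to compound for 60 hours before readout; potency for loss of cell viability measured by luminescence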
[9] = molecular target: T5, RNA-binding protein pos-1 (Caenorhabditis elegans, UniProt G5EF15); assay: disruptors of C. elegans POS-1 RNA interaction – biochemical, fluorescence polarization, dose response (AID 1964);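 note: purified POS-1 fused to maltose binding protein made in E. coli; potency of compounds blocking POS-1 binding to fluorescent RNA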
T5 sequence (G5EF15 whole entry): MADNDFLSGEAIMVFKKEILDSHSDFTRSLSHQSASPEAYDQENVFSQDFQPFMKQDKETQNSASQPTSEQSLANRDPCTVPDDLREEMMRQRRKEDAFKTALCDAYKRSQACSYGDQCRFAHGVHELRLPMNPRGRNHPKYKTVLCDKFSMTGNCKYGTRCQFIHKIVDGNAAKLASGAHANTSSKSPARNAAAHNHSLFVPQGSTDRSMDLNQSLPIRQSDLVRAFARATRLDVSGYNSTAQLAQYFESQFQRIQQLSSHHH

Fibrinogen beta chain [10] = molecular target: T3, Fibrinogen beta chain; assay: Fluorescence polarization-based biochemical high throughput dose response assay to identify inhibitors that disrupt the binding of a cyclic peptide (Tn7) to the fibrin proteolytic product D-Dimer and fragment E complex [DD(E )].
[11] = molecular target: T6, Zinc finger protein mex-5 (Caenorhabditis elegans, UniProt Q9XUB2); assay: potency of MEX-5 RNA-binding blockers – biochemical, C. elegans, fluorescence polarization, dose response (AID 1960)
T6 sequence (Q9XUB2 whole entry): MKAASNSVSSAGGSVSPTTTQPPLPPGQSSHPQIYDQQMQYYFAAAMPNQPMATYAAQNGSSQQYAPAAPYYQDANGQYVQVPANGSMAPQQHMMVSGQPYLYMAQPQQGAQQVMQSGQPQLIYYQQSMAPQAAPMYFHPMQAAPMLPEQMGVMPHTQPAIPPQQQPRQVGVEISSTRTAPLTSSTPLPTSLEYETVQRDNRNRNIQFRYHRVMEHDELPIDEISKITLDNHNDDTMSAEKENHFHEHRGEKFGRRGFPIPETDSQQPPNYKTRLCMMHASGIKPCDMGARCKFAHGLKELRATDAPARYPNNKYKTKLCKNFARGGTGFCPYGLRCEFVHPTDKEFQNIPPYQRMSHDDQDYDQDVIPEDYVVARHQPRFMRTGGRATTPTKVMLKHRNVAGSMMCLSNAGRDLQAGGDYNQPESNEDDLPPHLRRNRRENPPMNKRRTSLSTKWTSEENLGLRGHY

Keap1/Nrf2 = Keap1/Nrf2 (Homo sapiens, UniProt Q14145); assay: disruptors of Keap1 binding to Nrf2 peptide – biochemical, fluorescence polarization, cherry-picked samples, dose response (AID 588683)
Sequence of Keap1/Nrf2 (Q16236 whole entry): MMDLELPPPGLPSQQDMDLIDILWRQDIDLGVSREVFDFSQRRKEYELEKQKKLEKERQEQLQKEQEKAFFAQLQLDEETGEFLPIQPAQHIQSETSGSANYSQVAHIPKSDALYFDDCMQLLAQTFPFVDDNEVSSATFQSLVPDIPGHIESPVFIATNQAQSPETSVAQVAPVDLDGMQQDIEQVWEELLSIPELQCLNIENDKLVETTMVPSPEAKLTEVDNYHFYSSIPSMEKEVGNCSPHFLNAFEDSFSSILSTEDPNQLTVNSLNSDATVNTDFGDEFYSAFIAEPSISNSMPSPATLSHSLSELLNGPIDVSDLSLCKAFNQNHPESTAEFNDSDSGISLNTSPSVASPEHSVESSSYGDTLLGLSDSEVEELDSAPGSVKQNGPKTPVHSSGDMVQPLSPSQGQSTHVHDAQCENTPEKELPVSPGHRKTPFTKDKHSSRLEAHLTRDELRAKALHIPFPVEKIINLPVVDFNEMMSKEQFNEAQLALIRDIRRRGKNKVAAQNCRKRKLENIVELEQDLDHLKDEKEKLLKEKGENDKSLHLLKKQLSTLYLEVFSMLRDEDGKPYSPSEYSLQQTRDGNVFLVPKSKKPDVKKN
Sequence of Keap1/Nrf2 (Q14145 whole entry): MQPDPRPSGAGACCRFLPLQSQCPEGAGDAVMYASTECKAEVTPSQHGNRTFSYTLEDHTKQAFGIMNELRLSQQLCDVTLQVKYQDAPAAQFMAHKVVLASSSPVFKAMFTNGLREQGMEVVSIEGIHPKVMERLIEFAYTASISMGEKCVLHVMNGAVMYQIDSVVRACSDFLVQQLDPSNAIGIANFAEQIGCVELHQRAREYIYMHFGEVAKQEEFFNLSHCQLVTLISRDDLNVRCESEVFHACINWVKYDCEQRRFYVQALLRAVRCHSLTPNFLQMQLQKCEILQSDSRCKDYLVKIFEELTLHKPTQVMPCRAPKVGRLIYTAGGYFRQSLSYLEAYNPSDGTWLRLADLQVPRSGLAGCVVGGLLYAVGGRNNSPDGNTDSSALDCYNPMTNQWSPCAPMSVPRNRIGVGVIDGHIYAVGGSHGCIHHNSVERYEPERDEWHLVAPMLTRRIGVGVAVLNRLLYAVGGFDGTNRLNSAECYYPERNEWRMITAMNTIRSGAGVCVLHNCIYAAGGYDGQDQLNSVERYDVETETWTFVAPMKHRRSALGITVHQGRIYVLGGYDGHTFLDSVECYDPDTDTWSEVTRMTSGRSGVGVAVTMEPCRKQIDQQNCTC

Sequence of Scavenger receptor class B member 1 (Q61009 whole entry, the tested form may be a part): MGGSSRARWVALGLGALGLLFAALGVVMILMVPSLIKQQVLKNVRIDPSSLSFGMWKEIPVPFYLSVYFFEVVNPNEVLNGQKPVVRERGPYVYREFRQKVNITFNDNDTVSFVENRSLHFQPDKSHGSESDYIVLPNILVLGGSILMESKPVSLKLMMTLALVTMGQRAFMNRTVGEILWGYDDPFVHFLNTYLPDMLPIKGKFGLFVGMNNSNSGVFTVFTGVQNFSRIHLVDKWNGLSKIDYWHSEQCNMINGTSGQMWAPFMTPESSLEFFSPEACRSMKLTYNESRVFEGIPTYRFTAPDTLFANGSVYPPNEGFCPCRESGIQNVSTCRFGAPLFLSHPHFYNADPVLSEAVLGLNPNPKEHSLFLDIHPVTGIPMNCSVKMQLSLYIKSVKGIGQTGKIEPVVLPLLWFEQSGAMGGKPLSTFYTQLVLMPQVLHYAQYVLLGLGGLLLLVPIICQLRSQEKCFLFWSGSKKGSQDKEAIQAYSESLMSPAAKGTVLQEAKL

With COC(=O)c1cn(C(=O)c2cccc3ccccc23)c2ccccc12 the AC50 [1] was 25.1 µM (active).

In the case of Cc1cc2nnc(SCC(=O)Nc3cc(S(=O)(=O)N4CCOCC4)ccc3Cl)n2c2ccccc12, the IC50 (Hexokinase HKDC1 [2]) is reported as 3.39 µM (active), the IC50 (Hexokinase-1) is reported as 3.76 µM (active) and the IC50 (Hexokinase HKDC1 [3]) is reported as 3.16 µM (active).

For N#CC1=C(N)Oc2ccc3ccc(O)cc3c2C1c1ccsc1 (stereo not given), the EC50 (Troponin, cardiac muscle) was 18.8 µM (inactive), the AC50 (ORF 73) was 51.6 µM (active) and the IC50 (Fibrinogen beta chain [4]) was 8.51 µM (active). The AC50 [5] was 52.3 µM (active), the EC50 [6] was 15.4 µM (active) and the AC50 [7] was 8.56 µM (active). The EC50 [8] was 10.4 µM (active), the EC50 [9] was 76.1 µM (inconclusive) and the IC50 (Fibrinogen beta chain [10]) was > 83.3 µM (inactive). For the same molecule, the EC50 [11] was 11 µM (inconclusive) and the AC50 (Keap1/Nrf2) was > 52 µM (inactive).
